Data published in patent US6624199B1, “Aminobenzophenones” (Leo Pharmaceuticals Products Ltd. A/S, priority 1999, dated 2003).
“Also recorded” adds a separate entry of the source. Where two headings read alike, the source gives them in different places.

How the values were obtained:
[1] = test system: utriculi (pseudocomedones) of rhino mouse skin; test: Rhino mouse model (comedolytic and hyperplastic potency, skin irritation); conditions: for Skin irritation YES/NO / % increase in epidermal thickness / % reduction in number of utriculi: once daily for three weeks; for comedolytic effect (reduction in number of utriculi), in words / epidermal hyperplasia (increase in epidermal thickness and follicular epithelia), in words: 1.5% concentration in acetone, three weeks; for clinical visible skin irritancy, in words: three weeks treatment period
Method: (§3) The rhino mouse is an in vivo model for the study of hyperplastic and comedolytic potency of various drugs used in the treatment of acne. The rhino mouse has follicles on the skin. The orifices are distended with horny material and these structures resembles human microcomedones and are referred to as utriculi or pseudocomedones.
(§4) In the present study the effect of a number of compounds were evaluated in the rhino mouse model. […] Additionally a number of marketed products used today for treatment of acne were selected and included for comparison.
(§5) The animals were treated once daily for three weeks including weekends. […] Histological evaluation of the skin was performed at the end of the treatment period.

[2] = test system: Oxazolone-induced contact dermatitis in the mouse ear; test: Model 1: oxazolone-induced contact dermatitis in the mouse ear; type: in vivo; conditions: topical in acetone 30 min post-challenge, 0.5 mg/ear (all-trans retinoic acid 0.01 mg/ear)
Method: (§1) For in vivo assays, the test compounds were dissolved in acetone. Adapalene was tested as a gel formulation (Differin gel 0.1%, 20-30 mg/treatment). The screening doses were 0.5 mg/ear in model 1 and 2. Exception was all-trans retinoic acid (0.01 mg/ear).
Model 1. Oxazolone-induced Contact Dermatitis in the Mouse Ear
AIM Compounds with anti-inflammatory effects in this model may be useful in treating contact eczema in man.
METHODS Groups of 5-6 mice sensitised to oxazolone 4 days before challenge with oxazolone to the right ear. The resulting oedema (right ear thickness minus left ear thickness) is measured 24, 48 and 72 hours post-challenge (PC), and neutrophil (PMN) influx is determined by the myeloperoxidase (MPO) method 72 hours post-challenge in ear biopsies. The screening dose is 0.5 mg/ear or less applied to the right ear 30 min post-challenge (+30 min). Other dosing regimes are stated.
(§2) RESULTS Results are recorded as % change from control animals using the formula: 100(T/C-1) where T=mean Oedema/MPO treated group and C=mean Oedema/MPO control group. Negative figures represent inhibition and positive stimulation. The level of significance is set at p<0.05 using the Mann-Whitney's U-test. Significant stimulation is stated.

[3] = test system: TPA-induced chronic skin inflammation in the mouse ear; test: Model 2: TPA-induced chronic skin inflammation in the mouse ear; type: in vivo; conditions: topical in acetone twice daily day 8-10, once day 11, 0.5 mg/ear (all-trans retinoic acid 0.01 mg/ear)
Method: as §1
Model 2. Tpa-induced Chronic Skin Inflammation in the Mouse Ear
AIM Compounds with anti-inflammatory effects in this model may be useful in treating chronic skin disorders in man.
METHODS In groups of 5-6 mice, ear inflammation is induced by multiple topical applications of TPA on alternate days during a 10-day period. The resulting inflammation is treated topically with compounds in acetone solution twice daily on day 8, 9 and 10 and once on day 11. Ear thickness (ET) is determined 5-6 hours after the last drug administration, the mice are sacrificed and myeloperoxidase (MPO) activity (=PMN-infiltration) is determined in ear biopsies, cf. De Young, L. M. et al, Agents Actions, 26, 335-341 (1989); Carlson, R. P. et al, Agents Actions, 17, 197-204 (1985); Alford, J. G. et al, Agents Action, 37, (1992); Stanley, P. L. et at, Skin Pharmacol, 4, 262-271 (1991).
as §2, with “group” for “animals”, “ET/MPO” for “Oedema/MPO”

[4] = cited from earlier work
[5] = test system: utriculi (pseudocomedones) of rhino mouse skin; conditions: in vivo
Method: as §3, §4, §5

[6] = Differin gel 0.1%, versus untreated controls
[7] = 20 μg/ml in ethanol, period 1, versus vehicle control
[8] = Skinoren cream 20%, versus untreated controls
[9] = Basiron gel 5%, versus untreated controls
[10] = Basiron gel 10%, versus untreated controls
[11] = 1.5% in acetone, versus vehicle control

SMILES: COc1ccc(-c2ccc3cc(C(=O)O)ccc3c2)cc1C12CC3CC(CC(C3)C1)C2 [Adapalene]
- Skin irritation YES/NO ([1]; Differin gel 0.1%): YES
- % increase in epidermal thickness [1, 6]: 202%
- % reduction in number of utriculi [1, 6]: 92.7%

SMILES: CC1=C(/C=C/C(C)=C/C=C/C(C)=C/C(=O)O)C(C)(C)CCC1 [All-trans retinoic acid]
- SCORE OXA Oedema 48 hours p.c. [2]: 0 (% inhibition Oedema 48 h PC < 25)
- SCORE TPA Ear swelling [3]: 0 (% inhibition ET <25)
- Anti-inflam. ([4]; topical administration): No
- Antibacterial ([4]; topical administration): No
- Comedolytic ([4]; topical administration): Yes
- Potential irritant ([4]; topical administration): Yes
- Teratogenic ([4]; topical administration): Maybe
- Skin irritation YES/NO ([1]; 20 μg/ml in ethanol, period 1): YES
- % increase in epidermal thickness [1, 7]: 110%
- % reduction in number of utriculi [1, 7]: 81.5%

SMILES: O=C(O)CCCCCCCC(=O)O [Azelaic acid]
- SCORE OXA Oedema 48 hours p.c. [2]: 0 (% inhibition Oedema 48 h PC < 25)
- SCORE TPA Ear swelling [3]: 0 (% inhibition ET <25)
- Anti-inflam. ([4]; topical administration): Maybe
- Antibacterial ([4]; topical administration): Yes
- Comedolytic ([4]; topical administration): Yes
- Potential irritant ([4]; topical administration): Yes
- Teratogenic ([4]; topical administration): No
- % increase in epidermal thickness [1, 8]: 75%
- % reduction in number of utriculi [1, 8]: 5.7%
- Skin irritation YES/NO [5]: NO

SMILES: O=C(OOC(=O)c1ccccc1)c1ccccc1 [Benzoyl peroxide]
- SCORE OXA Oedema 48 hours p.c. [2]: 0 (% inhibition Oedema 48 h PC < 25)
- SCORE TPA Ear swelling [3]: 0 (% inhibition ET <25)
- Anti-inflam. ([4]; topical administration): Maybe
- Antibacterial ([4]; topical administration): Yes
- Comedolytic ([4]; topical administration): Some-
- Potential irritant ([4]; topical administration): Yes
- Skin irritation YES/NO ([1]; Basiron gel 5%): YES
- % increase in epidermal thickness [1, 9]: 178%
- % reduction in number of utriculi [1, 9]: 46.1%
- Skin irritation YES/NO ([1]; Basiron gel 10%): YES
- % increase in epidermal thickness [1, 10]: 190%
- % reduction in number of utriculi [1, 10]: 62.1%

SMILES: CCC[C@@H]1C[C@@H](C(=O)N[C@@H]([C@H]2O[C@H](SC)[C@H](O)[C@@H](O)[C@H]2O)[C@H](C)Cl)N(C)C1 [Clindamycin]
- Teratogenic ([4]; topical administration): Probably

SMILES: Cc1ccccc1C(=O)c1ccc(Nc2ccc(Br)cc2N)cc1Cl [Compound 101, 4-(2-Amino-4-bromophenylamino)-2-chloro-2′-methylbenzophenone]
- SCORE OXA Oedema 48 hours p.c. [2]: 2 (% inhibition Oedema 48 h PC ≧ 35 p < 0.05)
- SCORE TPA Ear swelling [3]: 3 (% inhibition ET ≧50 p < 0.05)
- comedolytic effect (reduction in number of utriculi), in words [1]: comedolytic effect; also recorded: most pronounced comedolytic activity
- epidermal hyperplasia (increase in epidermal thickness and follicular epithelia), in words [1]: epidermal hyperplasia
- % increase in epidermal thickness [1, 11]: 203%
- % reduction in number of utriculi [1, 11]: 67.4%
- clinical visible skin irritancy, in words [1]: without concomitant skin irritancy

SMILES: Cc1ccccc1C(=O)c1ccc(Nc2ccc(F)cc2N)cc1Cl [Compound 102, 4-(2-Amino-4-fluorophenylamino)-2-chloro-2′-methylbenzophenone]
- comedolytic effect (reduction in number of utriculi), in words [1]: comedolytic effect
- epidermal hyperplasia (increase in epidermal thickness and follicular epithelia), in words [1]: epidermal hyperplasia

SMILES: Cc1ccccc1C(=O)c1ccc(Nc2ccccc2N)cc1Cl [Compound 103, 4-(2-aminophenylamino)-2-chloro-2′-methylbenzophenone]
- SCORE OXA Oedema 48 hours p.c. [2]: 2 (% inhibition Oedema 48 h PC ≧ 35 p < 0.05)
- SCORE TPA Ear swelling [3]: 2 (% inhibition ET ≧40 p < 0.05)
- comedolytic effect (reduction in number of utriculi), in words [1]: comedolytic effect
- epidermal hyperplasia (increase in epidermal thickness and follicular epithelia), in words [1]: epidermal hyperplasia
- comedolytic effect (reduction in number of utriculi), in words ([1]; listed as 4-(2-aminophenylamino)-2-chloro-2′-methylbenzophenone): comedolytic activity
- % increase in epidermal thickness [1, 11]: 120%
- % reduction in number of utriculi [1, 11]: 52.5%
- clinical visible skin irritancy, in words [1]: without concomitant skin irritancy

SMILES: CCOC(=O)Nc1ccccc1Nc1ccc(C(=O)c2ccccc2C)c(Cl)c1 [Compound 106, ethyl N-(2-(4-(2-methylbenzoyl)-3-chlorophenylamino)phenyl)carbamate]
- SCORE OXA Oedema 48 hours p.c. [2]: 2 (% inhibition Oedema 48 h PC ≧ 35 p < 0.05)
- SCORE TPA Ear swelling [3]: 2 (% inhibition ET ≧40 p < 0.05)
- comedolytic effect (reduction in number of utriculi), in words [1]: comedolytic effect
- epidermal hyperplasia (increase in epidermal thickness and follicular epithelia), in words [1]: epidermal hyperplasia
- comedolytic effect (reduction in number of utriculi), in words ([1]; listed as ethyl N-(2-(4-(2-methylbenzoyl)-3-chlorophenylamino)phenyl)carbamate): comedolytic activity
- % increase in epidermal thickness [1, 11]: 146%
- % reduction in number of utriculi [1, 11]: 38.3%
- clinical visible skin irritancy, in words [1]: without concomitant skin irritancy

SMILES: C[C@H]1c2cccc(O)c2C(O)=C2C(=O)[C@]3(O)C(O)=C(C(N)=O)C(=O)[C@@H](N(C)C)[C@@H]3[C@@H](O)[C@@H]21 [Doxycyclin]
- Anti-inflam. ([4]; systemic administration): Yes
- Antibacterial ([4]; systemic administration): Yes
- Comedolytic ([4]; systemic administration): No
- Potential irritant ([4]; systemic administration): No
- Teratogenic ([4]; systemic administration): Yes

SMILES: CC[C@H]1OC(=O)[C@H](C)[C@@H](O[C@H]2C[C@@](C)(OC)[C@@H](O)[C@H](C)O2)[C@H](C)[C@@H](O[C@@H]2O[C@H](C)C[C@H](N(C)C)[C@H]2O)[C@](C)(O)C[C@@H](C)C(=O)[C@H](C)[C@@H](O)[C@]1(C)O [Erythromycin]
- SCORE OXA Oedema 48 hours p.c. [2]: 0 (% inhibition Oedema 48 h PC < 25)
- SCORE TPA Ear swelling [3]: 1 (% inhibition ET ≧25 p < 0.05)

SMILES: CC1=C(/C=C/C(C)=C/C=C/C(C)=C\C(=O)O)C(C)(C)CCC1 [Isotretinoin]
- Anti-inflam. ([4]; systemic administration): Yes
- Antibacterial ([4]; systemic administration): Yes
- Comedolytic ([4]; systemic administration): Yes
- Potential irritant ([4]; systemic administration): Yes
- Teratogenic ([4]; systemic administration): Yes

SMILES: CN(C)c1ccc(O)c2c1C[C@H]1C[C@H]3[C@H](N(C)C)C(O)=C(C(N)=O)C(=O)[C@@]3(O)C(O)=C1C2=O [Minocyclin]
- Anti-inflam. ([4]; systemic administration): Yes
- Antibacterial ([4]; systemic administration): Yes
- Comedolytic ([4]; systemic administration): No
- Teratogenic ([4]; systemic administration): Yes

SMILES: CN(C)[C@@H]1C(=O)C(C(N)=O)=C(O)[C@@]2(O)C(=O)C3=C(O)c4c(O)cccc4[C@@](C)(O)[C@H]3C[C@@H]12 [Tetracyclin]
- Anti-inflam. ([4]; systemic administration): Yes
- Antibacterial ([4]; systemic administration): Yes
- Comedolytic ([4]; systemic administration): No
- Potential irritant ([4]; systemic administration): No
- Teratogenic ([4]; systemic administration): Yes
